Source: ChEMBL document CHEMBL3351363 (J Med Chem, 2014)

Tests used:
[1] = biological target: T1, Muscarinic acetylcholine receptor M1 (Homo sapiens, UniProt P11229)
T1 sequence (P11229 whole entry): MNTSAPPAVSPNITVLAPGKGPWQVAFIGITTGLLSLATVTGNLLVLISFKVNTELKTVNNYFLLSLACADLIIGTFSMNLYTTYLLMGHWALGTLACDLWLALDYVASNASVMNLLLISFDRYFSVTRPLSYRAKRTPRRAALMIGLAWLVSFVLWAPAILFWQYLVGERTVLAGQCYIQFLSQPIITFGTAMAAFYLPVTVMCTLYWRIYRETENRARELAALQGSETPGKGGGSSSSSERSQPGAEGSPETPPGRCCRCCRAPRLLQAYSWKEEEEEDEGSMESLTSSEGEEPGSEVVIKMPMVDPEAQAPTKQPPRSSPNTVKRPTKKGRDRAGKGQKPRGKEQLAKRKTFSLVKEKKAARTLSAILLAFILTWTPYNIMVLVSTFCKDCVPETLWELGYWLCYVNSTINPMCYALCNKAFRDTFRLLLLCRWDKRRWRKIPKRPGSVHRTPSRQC

[2] = biological target: T2, Muscarinic acetylcholine receptor M4 (Homo sapiens) (UniProt P08173); experiment: Antagonist activity at human M4 receptor expressed in HEK293T cells assessed as inhibition of carbachol-induced response by BRET based Gq protein engagement assay relative to untreated control; format: cell-based; conditions: HEK-293T
T2 sequence (whole entry): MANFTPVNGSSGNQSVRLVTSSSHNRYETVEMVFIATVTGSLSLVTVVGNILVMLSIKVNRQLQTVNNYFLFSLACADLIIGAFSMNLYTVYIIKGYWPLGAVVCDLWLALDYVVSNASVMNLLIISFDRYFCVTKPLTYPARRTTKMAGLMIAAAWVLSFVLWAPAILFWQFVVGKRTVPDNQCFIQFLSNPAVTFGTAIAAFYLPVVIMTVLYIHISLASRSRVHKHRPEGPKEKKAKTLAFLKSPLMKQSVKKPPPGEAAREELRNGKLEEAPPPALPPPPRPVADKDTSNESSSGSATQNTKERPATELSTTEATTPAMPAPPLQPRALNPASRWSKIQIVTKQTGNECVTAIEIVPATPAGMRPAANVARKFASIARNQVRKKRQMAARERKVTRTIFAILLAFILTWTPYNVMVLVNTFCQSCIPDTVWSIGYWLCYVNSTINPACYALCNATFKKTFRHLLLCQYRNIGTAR

[3] = biological target: T3, Muscarinic acetylcholine receptor M4 (Homo sapiens, UniProt P08173); experiment: Antagonist activity at human M4 receptor expressed in HEK293T cells assessed as inhibition of carbachol-induced response by beta-arrestin engagement assay; format: cell-based, HEK-293T
T3 sequence (P08173 whole entry): T2 sequence (whole entry)

[4] = biological target: T4, Muscarinic acetylcholine receptor M1 (Homo sapiens) (UniProt P11229); experiment: Positive modulatory activity at human M1 receptor expressed in HEK293T cells assessed as effect on carbachol-induced response by BRET based Gq protein activation assay relative to untreated control; format: cell-based; conditions: HEK-293T
T4 sequence (whole entry): T1 sequence (P11229 whole entry)

[5] = biological target: T2, Muscarinic acetylcholine receptor M4 (Homo sapiens); experiment: Antagonist activity at human M4 receptor expressed in HEK293T cells assessed as inhibition of carbachol-induced response by BRET based Gi protein activation assay relative to untreated control; conditions: HEK-293T
[6] = biological target: T3, Muscarinic acetylcholine receptor M4
[7] = biological target: T4, Muscarinic acetylcholine receptor M1 (Homo sapiens); experiment: Positive modulatory activity at human M1 receptor expressed in HEK293T cells assessed as effect on carbachol-induced response by BRET based Gq protein engagement assay relative to untreated control; format: cell-based; conditions: HEK-293T
[8] = biological target: T2, Muscarinic acetylcholine receptor M4 (Homo sapiens); experiment: Antagonist activity at human M4 receptor expressed in HEK293T cells assessed as inhibition of xanomeline-induced response by BRET based Gq protein engagement assay relative to untreated control; format: cell-based; conditions: HEK-293T
[9] = biological target: T1, Muscarinic acetylcholine receptor M1; experiment: Agonist activity at human M1 receptor expressed in HEK293T cells by BRET based Gq protein activation assay; format: cell-based, HEK-293T
[10] = biological target: T2, Muscarinic acetylcholine receptor M4 (Homo sapiens); experiment: Antagonist activity at human M4 receptor expressed in HEK293T cells assessed as inhibition of xanomeline-induced response by beta-arrestin engagement assay relative to untreated control; format: cell-based; conditions: HEK-293T
[11] = biological target: T2, Muscarinic acetylcholine receptor M4 (Homo sapiens); experiment: Agonist activity at human M4 receptor expressed in HEK293T cells by BRET based Gi protein activation assay relative to carbachol; conditions: HEK-293T
[12] = biological target: T1, Muscarinic acetylcholine receptor M1; experiment: Agonist activity at human M1 receptor expressed in HEK293T cells by BRET based beta-arrestin engagement assay
[13] = biological target: T1, Muscarinic acetylcholine receptor M1; remark: listed apart in the source
[14] = biological target: T1, Muscarinic acetylcholine receptor M1; remark: listed apart in the source
[15] = biological target: T1, Muscarinic acetylcholine receptor M1; remark: listed apart in the source
[16] = biological target: T1, Muscarinic acetylcholine receptor M1; experiment: Positive modulatory activity at human M1 receptor expressed in HEK293T cells assessed as effect on carbachol-induced response by BRET based Gq protein engagement assay; format: cell-based, HEK-293T
[17] = biological target: T3, Muscarinic acetylcholine receptor M4; experiment: Antagonist activity at human M4 receptor expressed in HEK293T cells assessed as inhibition of xanomeline-induced response by beta-arrestin engagement assay; format: cell-based, HEK-293T
[18] = biological target: T5, Muscarinic acetylcholine receptor M5 (Homo sapiens, UniProt P08912); experiment: Displacement of [3H]NMS from human M5 receptor expressed in CHO cells by microplate scintillation counting based radioligand binding assay; format: cell-based
T5 sequence (P08912 whole entry): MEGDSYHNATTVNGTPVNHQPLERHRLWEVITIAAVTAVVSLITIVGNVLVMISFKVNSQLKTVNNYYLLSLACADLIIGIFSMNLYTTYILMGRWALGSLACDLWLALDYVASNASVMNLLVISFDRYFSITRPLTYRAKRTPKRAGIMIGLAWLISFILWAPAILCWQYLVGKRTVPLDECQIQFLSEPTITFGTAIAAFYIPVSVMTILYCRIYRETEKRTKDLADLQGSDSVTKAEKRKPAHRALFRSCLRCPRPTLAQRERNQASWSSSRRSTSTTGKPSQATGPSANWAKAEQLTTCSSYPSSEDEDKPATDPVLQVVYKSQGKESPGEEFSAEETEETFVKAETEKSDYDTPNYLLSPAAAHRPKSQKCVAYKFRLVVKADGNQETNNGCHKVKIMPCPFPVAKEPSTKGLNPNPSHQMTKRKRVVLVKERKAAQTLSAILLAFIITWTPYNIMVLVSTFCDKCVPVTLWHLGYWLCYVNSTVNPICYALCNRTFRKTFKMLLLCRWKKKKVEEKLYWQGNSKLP

EC50 [1]: 263 nM
Imax [2]: 86%
IC50 [3]: 178 nM
Emax [4]: 79%
Imax [5]: 55%
IC50 [6]: 47900 nM
Emax [7]: 101%
Imax [8]: 78%
EC50 [9]: 102 nM
Imax [10]: 19%
Emax [11]: 46%
EC50 [12]: 832 nM
IC50 [13]: 1580 nM
IC50 [14]: 174 nM
EC50 [15]: 120 nM
EC50 [16]: 34.7 nM
IC50 [17]: 7590 nM
Ki [18]: 5370 nM
SMILES: CCCCC1CCN(CCCN2C(=O)CCc3ccccc32)CC1
